This is an account of results in patent US7419780B2, “Methods and assays for screening protein targets” (The Trustees of Columbia University in the City of New York, priority 2000, dated 2008).

Holding throughout (format): cell-based, S. cerevisiae
Holding throughout (conditions): 1 uM small molecule, difference to activity without small molecule, average of two trials

In assay [1] the target is T1, LexA (GSG)2eDHFR / B42 (GSG)rGR2 (UniProt P06536+P0ABQ4, C656G/F620S).
T1 construct: rat Glucocorticoid Receptor (aa 524-795) with point mutations; expressed in transfected cells; host or cells: S. cerevisiae FY250
T1 sequence (P0ABQ4 1-159): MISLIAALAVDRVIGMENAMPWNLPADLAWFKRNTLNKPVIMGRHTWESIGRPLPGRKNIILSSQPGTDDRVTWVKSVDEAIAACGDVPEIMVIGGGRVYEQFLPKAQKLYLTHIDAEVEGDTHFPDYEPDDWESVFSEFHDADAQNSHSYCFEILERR
T1 sequence (P06536 524-795 F620S/C656G limits assumed): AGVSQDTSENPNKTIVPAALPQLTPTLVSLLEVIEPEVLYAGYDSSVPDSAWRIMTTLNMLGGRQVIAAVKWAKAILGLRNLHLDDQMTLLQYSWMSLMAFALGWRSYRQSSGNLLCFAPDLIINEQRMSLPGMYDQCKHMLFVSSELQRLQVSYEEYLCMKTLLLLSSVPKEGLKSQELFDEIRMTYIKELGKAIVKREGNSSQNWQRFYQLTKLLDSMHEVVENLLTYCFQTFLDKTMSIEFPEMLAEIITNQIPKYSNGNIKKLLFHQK
Put plainly: β-galactosidase activity assay, strain V501Y. An excerpt:
(§1) Table III explains the components of each strain. Each strain was constructed from the parent yeast strain FY250 and also contains the pMW106 plasmid, which has the LacZ reporter gene that is turned on only in when the LexA DNA binding domain and the B42 activation are brought in tot he vicinity of each other. We use several different strains because we use DHFR from two different species, mDHFR is from murine, while eDHFR is from E. coli. We are asl oable to switch the small moleculebinding domains. For example, the strain containing LexA-eDHFR with B42-rGH2 is a different strain and behaves differently from the strain containing LexA-rGR2 with B42-eDHFR. We also put in short 6 amino acid linkers between the two domains of our protein chimeras and thus these are different strain as well.
(§2) The results in Table IV are averages of two separate trials. Each strain was examined with small molecules and without small molecules. The absolute activity is given as the β-galactisidase activity […]. The average β-galactosidse activity for a strain without small molecule (i.e. the negative control) was about 100 β-galactosidase units.

The next assay has as its target T2, LexA rGR2 / B42 mDHFR (UniProt P00375+P06536, C656G/F620S).
T2 construct: rat Glucocorticoid Receptor (aa 524-795) with point mutations; expressed in transfected cells; host or cells: S. cerevisiae FY250
T2 sequence (P06536 524-795 F620S/C656G limits assumed): T1 sequence (P06536 524-795 F620S/C656G limits assumed)
T2 sequence (P00375 1-187): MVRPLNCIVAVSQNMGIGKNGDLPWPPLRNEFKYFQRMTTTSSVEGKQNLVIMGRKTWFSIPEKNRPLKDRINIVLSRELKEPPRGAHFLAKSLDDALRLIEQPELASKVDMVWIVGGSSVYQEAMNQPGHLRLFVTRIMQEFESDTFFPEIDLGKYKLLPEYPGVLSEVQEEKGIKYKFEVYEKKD
Briefly: β-galactosidase activity assay, strain V507Y.
Description: as §1, §2

Assay [2] addresses T3, LexA (GSG)2rGR2 / B42 (GSG)2mDHFR (UniProt P00375+P06536, C656G/F620S).
T3 construct: rat Glucocorticoid Receptor (aa 524-795) with point mutations; expressed in transfected cells; host or cells: S. cerevisiae FY250
T3 sequence (P06536 524-795 F620S/C656G limits assumed): T1 sequence (P06536 524-795 F620S/C656G limits assumed)
T3 sequence (P00375 1-187): T2 sequence (P00375 1-187)
Briefly: β-galactosidase activity assay, strain V512Y.
Description: as §1, §2

Assay [3] addresses T4, LexA (GSG)2mDHFR / B42 (GSG)rGR2 (UniProt P00375+P06536, C656G/F620S).
T4 construct: rat Glucocorticoid Receptor (aa 524-795) with point mutations; expressed in transfected cells; host or cells: S. cerevisiae FY250
T4 sequence (P00375 1-187): T2 sequence (P00375 1-187)
T4 sequence (P06536 524-795 F620S/C656G limits assumed): T1 sequence (P06536 524-795 F620S/C656G limits assumed)
Put plainly: β-galactosidase activity assay, strain V504Y.
Description: as §1, §2

The next assay has as its target T5, LexA mDHFR / B42 rGR2 (UniProt P00375+P06536, C656G/F620S).
T5 construct: rat Glucocorticoid Receptor (aa 524-795) with point mutations; expressed in transfected cells; host or cells: S. cerevisiae FY250
T5 sequence (P00375 1-187): T2 sequence (P00375 1-187)
T5 sequence (P06536 524-795 F620S/C656G limits assumed): T1 sequence (P06536 524-795 F620S/C656G limits assumed)
Briefly: β-galactosidase activity assay, strain V495Y.
Description: as §1, §2

Assay [4] has as its target T6, LexA (GSG)2eDHFR / B42 rGR2 (UniProt P06536+P0ABQ4, C656G/F620S).
T6 construct: rat Glucocorticoid Receptor (aa 524-795) with point mutations; expressed in transfected cells; host or cells: S. cerevisiae FY250
T6 sequence (P0ABQ4 1-159): T1 sequence (P0ABQ4 1-159)
T6 sequence (P06536 524-795 F620S/C656G limits assumed): T1 sequence (P06536 524-795 F620S/C656G limits assumed)
Put plainly: β-galactosidase activity assay, strain V498Y.
Description: as §1, §2

Assay [5] deals with T7, LexA (GSG)2mDHFR / B42 rGR2 (UniProt P00375+P06536, C656G/F620S).
T7 construct: rat Glucocorticoid Receptor (aa 524-795) with point mutations; expressed in transfected cells; host or cells: S. cerevisiae FY250
T7 sequence (P00375 1-187): T2 sequence (P00375 1-187)
T7 sequence (P06536 524-795 F620S/C656G limits assumed): T1 sequence (P06536 524-795 F620S/C656G limits assumed)
Put plainly: β-galactosidase activity assay, strain V502Y.
Description: as §1, §2

Assay [6] concerns the target T8, LexA (GSG)2rGR2 / B42 mDHFR (UniProt P00375+P06536, C656G/F620S).
T8 construct: expressed in transfected cells; host or cells: S. cerevisiae FY250 with pMW106 lacZ reporter
T8 sequence (P06536 524-795 F620S/C656G limits assumed): T1 sequence (P06536 524-795 F620S/C656G limits assumed)
T8 sequence (P00375 1-187): T2 sequence (P00375 1-187)
Briefly: β-galactosidase activity assay, strain V508Y.
Description: as §1, §2

In a further assay the target is T9, LexA eDHFR / B42 rGR2 (UniProt P06536+P0ABQ4, C656G/F620S).
T9 construct: rat Glucocorticoid Receptor (aa 524-795) with point mutations; expressed in transfected cells; host or cells: S. cerevisiae FY250
T9 sequence (P0ABQ4 1-159): T1 sequence (P0ABQ4 1-159)
T9 sequence (P06536 524-795 F620S/C656G limits assumed): T1 sequence (P06536 524-795 F620S/C656G limits assumed)
Briefly: β-galactosidase activity assay, strain V493Y.
Description: as §1, §2

The target of assay [7] is T10, LexA (GSG)2rGR2 / B42 eDHFR (UniProt P06536+P0ABQ4, C656G/F620S).
T10 construct: expressed in transfected cells; host or cells: S. cerevisiae FY250 with pMW106 lacZ reporter
T10 sequence (P06536 524-795 F620S/C656G limits assumed): T1 sequence (P06536 524-795 F620S/C656G limits assumed)
T10 sequence (P0ABQ4 1-159): T1 sequence (P0ABQ4 1-159)
Put plainly: β-galactosidase activity assay, strain V506Y.
Description: as §1, §2

Consider `C[C@@H]1C[C@H]2C3CCC4=CC(=O)C=C[C@]4(C)[C@@]3(F)[C@@H](O)C[C@]2(C)[C@@]1(O)C(=O)NCCSCCCCCCCCSCC[C@H](NC(=O)c1ccc(N(C)Cc2cnc3nc(N)nc(N)c3n2)cc1)C(=O)O` (stereo partly shown) [D8M], for which the B-gal activity is given as 6660 β-galactosidase units in assay [1]; −6 β-galactosidase units on LexA rGR2 / B42 mDHFR; −4 β-galactosidase units in assay [2]; 30 β-galactosidase units in [3]; 38 β-galactosidase units on LexA mDHFR / B42 rGR2; 5442 β-galactosidase units in assay [4]. In addition, the B-gal activity in [5] is listed as 30 β-galactosidase units; in [6] it was −5 β-galactosidase units; on LexA eDHFR / B42 rGR2, 5555 β-galactosidase units; in assay [7], 3867 β-galactosidase units.
